Measurements published in the CheMixHub viscosity set.
± gives the uncertainty stated by the source.

Assay: xn = mol fraction of the nth substance listed

CC(C)(C)O + CCCCCC
303.2 K, 101.33 kPa
Conditions	viscosity [mPa·s]
x2 = 0.05	2.298 ± 0.015
x2 = 0.1	1.677 ± 0.011
x2 = 0.15	1.306 ± 0.009
x2 = 0.2	1.052 ± 0.007
x2 = 0.3	0.749 ± 0.006
x2 = 0.4	0.568 ± 0.005
x2 = 0.5	0.465 ± 0.004
x2 = 0.6	0.41 ± 0.004
x2 = 0.7	0.361 ± 0.003
x2 = 0.8	0.319 ± 0.003
x2 = 0.85	0.302 ± 0.003
x2 = 0.9	0.289 ± 0.003
x2 = 0.95	0.281 ± 0.003

CCCCOC(=O)c1ccccc1 + CCCCCC
101 kPa
Conditions	viscosity [mPa·s]
298.15 K, x2 = 0.0788	2.272 ± 0.071
298.15 K, x2 = 0.1269	2.042 ± 0.064
298.15 K, x2 = 0.1801	1.81 ± 0.057
298.15 K, x2 = 0.2539	1.536 ± 0.048
298.15 K, x2 = 0.302	1.377 ± 0.043
298.15 K, x2 = 0.3485	1.244 ± 0.039
298.15 K, x2 = 0.4084	1.088 ± 0.034
298.15 K, x2 = 0.4955	0.896 ± 0.028
298.15 K, x2 = 0.5498	0.796 ± 0.025
298.15 K, x2 = 0.6402	0.654 ± 0.021
298.15 K, x2 = 0.6861	0.594 ± 0.019
298.15 K, x2 = 0.7746	0.495 ± 0.016
298.15 K, x2 = 0.8136	0.458 ± 0.015
298.15 K, x2 = 0.8494	0.427 ± 0.014
298.15 K, x2 = 0.8868	0.399 ± 0.013
298.15 K, x2 = 0.9265	0.37 ± 0.012
298.15 K, x2 = 0.961	0.348 ± 0.011
308.15 K, x2 = 0.0668	1.923 ± 0.061
308.15 K, x2 = 0.1277	1.7 ± 0.054
308.15 K, x2 = 0.1875	1.5 ± 0.047
308.15 K, x2 = 0.2458	1.331 ± 0.042
308.15 K, x2 = 0.2926	1.211 ± 0.038
308.15 K, x2 = 0.3554	1.063 ± 0.034
308.15 K, x2 = 0.4013	0.966 ± 0.031
308.15 K, x2 = 0.4549	0.863 ± 0.027
308.15 K, x2 = 0.5013	0.785 ± 0.025
308.15 K, x2 = 0.5515	0.707 ± 0.022
308.15 K, x2 = 0.5967	0.644 ± 0.021
308.15 K, x2 = 0.6407	0.59 ± 0.019
308.15 K, x2 = 0.6896	0.536 ± 0.017
308.15 K, x2 = 0.728	0.497 ± 0.016
308.15 K, x2 = 0.7727	0.457 ± 0.015
308.15 K, x2 = 0.8106	0.427 ± 0.014
308.15 K, x2 = 0.8512	0.396 ± 0.013
308.15 K, x2 = 0.8888	0.37 ± 0.012
308.15 K, x2 = 0.9482	0.337 ± 0.011
318.15 K, x2 = 0.0337	1.707 ± 0.054
318.15 K, x2 = 0.1077	1.48 ± 0.047
318.15 K, x2 = 0.1661	1.326 ± 0.042
318.15 K, x2 = 0.231	1.166 ± 0.037
318.15 K, x2 = 0.2845	1.05 ± 0.033
318.15 K, x2 = 0.3438	0.934 ± 0.03
318.15 K, x2 = 0.3951	0.846 ± 0.027
318.15 K, x2 = 0.4512	0.757 ± 0.024
318.15 K, x2 = 0.4998	0.691 ± 0.022
318.15 K, x2 = 0.5513	0.624 ± 0.02
318.15 K, x2 = 0.5518	0.625 ± 0.02
318.15 K, x2 = 0.646	0.523 ± 0.017
318.15 K, x2 = 0.6884	0.486 ± 0.016
318.15 K, x2 = 0.7317	0.447 ± 0.014
318.15 K, x2 = 0.7749	0.412 ± 0.013
318.15 K, x2 = 0.8206	0.383 ± 0.012
318.15 K, x2 = 0.8608	0.36 ± 0.012
318.15 K, x2 = 0.9115	0.327 ± 0.011
318.15 K, x2 = 0.9342	0.317 ± 0.01

CCNCC + CCCCCC
viscosity [mPa·s], 101 kPa
Conditions	x2 = 0.0897	x2 = 0.1836	x2 = 0.2802	x2 = 0.3738	x2 = 0.474	x2 = 0.5744	x2 = 0.6849	x2 = 0.7818	x2 = 0.8954
298.15 K	0.284 ± 0.003	0.281 ± 0.003	0.28 ± 0.003	0.278 ± 0.003	0.278 ± 0.003	0.279 ± 0.003	0.281 ± 0.003	0.283 ± 0.003	0.287 ± 0.003
313.15 K	0.254 ± 0.003	0.251 ± 0.003	0.25 ± 0.003	0.249 ± 0.003	0.25 ± 0.01	0.25 ± 0.003	0.251 ± 0.003	0.254 ± 0.003	0.257 ± 0.003

CCOC(=O)CCCBr + CCCCCC
303.15 K, 101 kPa
Conditions	viscosity [mPa·s]
x1 = 0.2012	0.4062 ± 0.0048
x1 = 0.3949	0.5871 ± 0.0054
x1 = 0.4988	0.7248 ± 0.0059
x1 = 0.6008	0.8853 ± 0.0065
x1 = 0.7973	1.274 ± 0.0081
